Source: patent US8338472B2, “Hexahydrocyclopentyl[F]indazole carboxamides and derivatives thereof as selective glucocorticoid receptor modulators” (Merck Sharp & Dohme Corp., priority 2008, dated 2012)
Like-named read-outs stand apart in the source and are kept apart here.

Columns and labels:
human GR = target: T1, human GR (Homo sapiens, UniProt P04150); assay: Transrepression Assay (GITAR), TNFα-β-lactamase reporter gene in U937 cells; format: cell-based; conditions: for GITAR Greater than by GRAMMER % SEP: GITAR Emax minus GRAMMER Emax; for EC50: inflection point, U937 cells, read-out: Transrepression U937 Cells GITAR IP
T1 construct: U937 cells contain an endogenous glucocorticoid receptor (GR); endogenous in cells; host or cells: U937 cells stably transfected with the TNF-alpha promoter/beta-lactamase reporter
T1 sequence (P04150 1-777): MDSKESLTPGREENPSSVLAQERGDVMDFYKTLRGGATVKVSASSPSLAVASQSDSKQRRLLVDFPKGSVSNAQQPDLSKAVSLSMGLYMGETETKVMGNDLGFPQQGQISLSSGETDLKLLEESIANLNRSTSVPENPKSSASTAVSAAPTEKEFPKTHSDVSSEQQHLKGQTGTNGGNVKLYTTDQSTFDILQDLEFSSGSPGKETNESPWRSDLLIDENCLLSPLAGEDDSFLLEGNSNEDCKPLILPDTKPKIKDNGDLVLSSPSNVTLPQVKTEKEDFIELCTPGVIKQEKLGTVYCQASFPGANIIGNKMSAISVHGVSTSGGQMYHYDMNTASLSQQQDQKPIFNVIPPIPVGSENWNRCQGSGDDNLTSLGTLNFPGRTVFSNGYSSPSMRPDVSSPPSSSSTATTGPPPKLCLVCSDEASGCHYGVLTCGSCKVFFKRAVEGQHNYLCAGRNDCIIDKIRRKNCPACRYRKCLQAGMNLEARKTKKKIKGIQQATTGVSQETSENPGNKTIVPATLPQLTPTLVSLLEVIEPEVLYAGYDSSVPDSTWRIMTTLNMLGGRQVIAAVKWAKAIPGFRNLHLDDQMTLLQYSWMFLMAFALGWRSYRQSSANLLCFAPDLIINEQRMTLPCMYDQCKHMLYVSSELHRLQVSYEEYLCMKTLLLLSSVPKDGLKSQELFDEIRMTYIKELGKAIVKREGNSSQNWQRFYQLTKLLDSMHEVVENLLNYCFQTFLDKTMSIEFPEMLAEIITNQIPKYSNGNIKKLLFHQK
Source text: Transrepression Assay (GITAR)
This assay assesses the ability of test compounds to control transcription from the TNFα-β-lactamase reporter gene in U937 cells, a human myelomonocytic leukemia cell line that naturally expresses the human GR. The assay measures compound dependent-repression of the TNFa promoter linked to a reporter gene.
The human U937 cells that had been stablely transfected with the TNF-α promoter driving β-lactamase are used for this assay. U937 cells contain an endogenous glucocorticoid receptor (GR). Cells are maintained in RPMI 1640 Growth medium (Gibco Cat#11875-093) containing 25 mM HEPES, 10% FBS, 2 mM L-Glutamine, 1 mM Sodium pyruvate, 25 μg/ml Gentamicin (Gibco Cat#15710-064), 1:1000 2-Mercaptoethanol (Gibco Cat#21985-023) and 0.8 mg/ml G418 (Gibco Cat#10131-027). The density of the cells in the flask needs to be about 1×10^6−3×10^6/ml at the time of harvest. Usually, the cells are split to 1.2˜1.4×10^5/ml (1:10) 3 days prior to the assay. 50,000 cells/well are plated in 96 well black-walled plates the day of assay. Test compounds are added 10 pt/well, and cells are incubated at 37° C. for 30-45 min. For assaying compounds, first dilute 1:10 in DMSO to make 1 mM, then further dilute 1:100 in medium to make 10× stock prior to adding to the cells. Add 50 ng/ml PMA (Sigma, cat# P8139) 10 μL/well to a final concentration 5 ng/ml, and 1 μg/ml LPS (Sigma, cat# L4130) 10 μL/well to a final concentration 100 ng/ml. Incubate cells at 37° C. overnight for ˜18 hr. PMA is stored frozen as 100 μg/ml stock in DMSO. Dilute 1:10 in DMSO for a working stock of 10 μg/ml and store at −20C. For assaying, dilute the […] working stock 1:200 in medium to make a 10× solution (50 ng/ml). Store frozen LPS at 1 mg/ml in PBS, dilute 1:1000 in medium to make 10× (1 μg/ml) for the assay. Add 6× loading buffer (CCF2−AM) 20 μL/well, and incubate at room temperature for 70-90 min. […] The activity repressed by 100 nM dexamethasone alone is set as 100% activity.

Glucocorticoid Receptor = target: T2, Glucocorticoid Receptor (Homo sapiens, UniProt P04150); assay: Trans-Activation Modulation of Glucocorticoid Receptor (GRAMMER), MMTV-LUC reporter gene in A549 cells; format: cell-based; conditions: Table 1; for Emax: A549, A549 cells, Emax relative to 300 nM dexamethasone, read-out: Transactivation A549 Cells GRAMMER Emax; for EC50: inflection point, A549 cells, read-out: Transactivation A549 Cells GRAMMER IP
T2 construct: These cells express large amount of the GR and are very responsive to GC treatment; endogenous in cells; host or cells: A549 cells transiently transfected with the MMTV-LUC reporter
T2 sequence (P04150 1-777): T1 sequence (P04150 1-777)
Source text: Trans-Activation Modulation of Glucocorticoid Receptor (GRAMMER)
This assay assesses the ability of test compounds to control transcription from the MMTV-LUC reporter gene in lung adenocarcinoma A549 cells or MDA-MB-453 cells, a human breast cancer cell line that naturally expresses the human GR. The assay measures induction of a modified MMTV LTR/promoter linked to the LUC reporter gene.
The routine transient assay consists of plating 7,000-25,000 cells/well of a white, clear-bottom 96-well plate. Alternatively, 384-well plates can be used at a cell concentration of 10,000/well. The media that the cells are plated in is “exponential growth medium” which consists of phenol red-free RPMI1640 containing 10% FBS, 4 mM L-glutamine, 20 mM HEPES, 10 ug/mL human insulin, and 20 ug/mL gentamicin. Incubator conditions are 37° C. and 5% CO2. The transfection is done in batch mode. The cells are trypsinized and counted to the right cell number in the proper amount of fresh media. It is then gently mixed with the FuGene6/DNA mix and plated onto the 96 or 384-well plate, all the wells receive 100 uL or 40 uL, respectively, of medium+lipid/DNA complex then incubated 37° C. overnight. The transfection cocktail consists of serum-free OptiMEM, FuGene6 reagent and DNA. The manufacturer's (Roche Biochemical) protocol for cocktail setup is as follows: The lipid to DNA ratio is approximately 2.5:1 and the incubation time is 20 min at room temperature. Sixteen to 24 hours after transfection, the cells are treated with dexamethasone to a final concentration of 10 nM as well as the compound of interest, such that final DMSO (vehicle) concentration is equal to or less than 1%. Each plate also contains samples that are treated with 10 nM dexamethasone alone, which is used as the 100% activity control. The cells are exposed to the compounds for 24 hours. After 24 hours, the cells are lysed by a Promega cell culture lysis buffer for approximately 30 min and then the luciferase activity in the extracts is assayed in the 96-well format luminometer. In 384-well format, Steady-Glo (Promega) or Steady-Lite (PerkinElmer) can be used by adding an equal volume of reagent to the media present in each well. Activity induced by 10 nM dexamethasone alone is set at 100% activity. Antagonist activity is calculated by determining the decrease in dexamethasone-induced activity in response to compound treatment relative to samples that were treated with dexamethasone alone. […] This transactivation assay can be performed in an agonist and antagonist mode to identify these different activities.
Activity of test compounds is calculated as the Emax relative to the activity obtained with 300 nM dexamethasone. Activity of test compounds is calculated as the Emax relative to the activity obtained with 300 nM DEX. […] The action of compounds is also tested in an antagonist mode (Anti-GRAMMER) in which the cells are treated with medium containing an agonist such as 10 nM DEX and the ability to agents to inhibit the activation by an agonist is measured.

[1] = target: T3, glucocorticoid receptor (GR) (Homo sapiens, UniProt P04150); assay: Ligand binding assay (GR BIND), 3H-dexamethasone displacement in MDA-MB-453 cell lysate; conditions: GR BIND Ki, Table 1
T3 sequence (P04150 1-777): T1 sequence (P04150 1-777)

[2] = U-937, U937 cells, activity repressed by 100 nM dexamethasone = 100%, Table 1, read-out: Transrepression U937 Cells GITAR Emax
[3] = U-937, text statement, 100 nM dexamethasone = 100%, read-out: maximal activity in the transrepression assay (GITAR)

| Compound | GITAR Greater than by GRAMMER % SEP (human GR; Table 1) [%] | Emax (human GR; [2]) [%] | Emax (human GR; [3]) [%] | EC50 (human GR; Table 1) [nM] | Emax (Glucocorticoid Receptor) [%] | EC50 (Glucocorticoid Receptor) [nM] | Ki [1] [nM] |
| --- | --- | --- | --- | --- | --- | --- | --- |
| CC(O)CN(CC(C)O)C(=O)[C@H]1CCC2=Cc3c(cnn3-c3ccc(F)cc3)C[C@@]21C (stereo partly drawn) [Compound 10, (4αR,5S)-1-(4-fluorophenyl)-N,N-bis(2-hydroxypropyl)-4α-methyl-1,4,4α,5,6,7-hexahydrocyclopenta[f]indazole-5-carboxamide] | 19.0 | 59.8 | > 5 | 384 | 40.8 | 326 | 1.8 |
| CC(C)CN(CC(C)C)C(=O)[C@H]1CCC2=Cc3c(cnn3-c3ccc(F)cc3)C[C@@]21C [Compound 11, (4αR,5S)-1-(4-fluorophenyl)-N,N-diisobutyl-4α-methyl-1,4,4α,5,6,7-hexahydrocyclopenta[f]indazole-5-carboxamide] | 22.2 | 67.5 | > 5 | 328 | 45.3 | 177 | 1.7 |
| CCCCN(CC)C(=O)[C@H]1CCC2=Cc3c(cnn3-c3ccc(F)cc3)C[C@@]21C [Compound 12, (4αR,5S)-N-butyl-N-ethyl-1-(4-fluorophenyl)-4α-methyl-1,4 ,4α,5,6,7-hexahydrocyclopenta[f]indazole-5-carboxamide] | 26.6 | 56.3 | > 5 | 662 | 29.7 | 376 | 1.4 |
| C[C@]12Cc3cnn(-c4ccc(F)cc4)c3C=C1CC[C@@H]2C(=O)N(CCC#N)C1CC1 [Compound 14, (4αR,5S)-N-(2-cyanoethyl)-N-cyclopropyl-1-(4-fluorophenyl)-4α-methyl-1,4,4α,5,6,7-hexahydrocyclopenta[f]indazole-5-carboxamide] | 27.1 | 38.3 | > 5 | 1590 | 11.2 | 1420 | 10.8 |
| CCCN(C(=O)[C@H]1CCC2=Cc3c(cnn3-c3ccc(F)cc3)C[C@@]21C)C(C)CC (stereo partly drawn) [Compound 16, (4αR,5S)-N-(sec-butyl)-1-(4-fluorophenyl)-4α-methyl-N-propyl-1,4,4α,5,6,7-hexahydrocyclopenta[f]indazole-5-carboxamide] | 28.1 | 61.8 | > 5 | 376 | 33.8 | 184 | 2.8 |

Continued by falling EC50 (human GR; Table 1), values first:

| GITAR Greater than by GRAMMER % SEP (human GR; Table 1) [%] | Emax (human GR; [2]) [%] | Emax (human GR; [3]) [%] | EC50 (human GR; Table 1) [nM] | Emax (Glucocorticoid Receptor) [%] | EC50 (Glucocorticoid Receptor) [nM] | Ki [1] [nM] | Compound |
| --- | --- | --- | --- | --- | --- | --- | --- |
| 6.2 | 10.2 | > 5 | 4260 | 4 | 1690 | 4.5 | C[C@]12Cc3cnn(-c4ccc(F)cc4)c3C=C1CC[C@@H]2C(=O)N1CCCC1CCc1ccccc1 (stereo partly drawn) [Compound 19, (4αR,5S)-1-(4-fluorophenyl)-4α-methyl-5-{[2-(2-phenylethyl)pyrrolidin-1-yl]carbonyl}-1,4,4α,5,6,7-hexahydrocyclopenta[f]indazole] |
| 7.2 | 12.5 | > 5 | 3410 | 5.3 | 1540 | 120 | C[C@]12Cc3cnn(-c4ccc(F)cc4)c3C=C1CC[C@@H]2C(=O)N1CCCC(=O)CC1 [Compound 15, 1-{[(4αR,5S)-1-(4-fluorophenyl)-4α-methyl-1,4,4α,5,6,7-hexahydrocyclopenta[f]indazol-5-yl]carbonyl}azepan-4-one] |
| 2.3 | 11.8 | > 5 | 1830 | 9.4 | 526 | 43.6 | CC1CN(C(=O)[C@H]2CCC3=Cc4c(cnn4-c4ccc(F)cc4)C[C@@]32C)CC(C)O1 (stereo partly drawn) [Compound 17, (4αR,5S)-5-[(2,6-dimethylmorpholin-4-yl)carbonyl]-1-(4-fluorophenyl)-4α-methyl-1,4,4α,5,6,7-hexahydrocyclopenta[f]indazole] |
| 13.6 | 28 | > 5 | 1080 | 14.4 | 519 | 35.3 | C[C@]12Cc3cnn(-c4ccc(F)cc4)c3C=C1CC[C@@H]2C(=O)N(CCC#N)CCC#N [Compound 13, (4αR,5S)-N,N-bis(2-cyanoethyl)-1-(4-fluorophenyl)-4α-methyl-1,4,4α,5,6,7-hexahydrocyclopenta[f]indazole-5-carboxamide] |
